Data as given in ChEMBL document CHEMBL5579832, “Design, synthesis, and biological evaluation of pyrido[2,3-d]pyrimidin-7(8H)-one derivatives as potent USP1 inhibitors” (Eur J Med Chem, 2024).
Calls of active or inactive are those of the source. The rule behind the calls is not given here.

Target: T1, Ubiquitin carboxyl-terminal hydrolase 4 (Homo sapiens) (UniProt Q13107)
T1 sequence (whole entry): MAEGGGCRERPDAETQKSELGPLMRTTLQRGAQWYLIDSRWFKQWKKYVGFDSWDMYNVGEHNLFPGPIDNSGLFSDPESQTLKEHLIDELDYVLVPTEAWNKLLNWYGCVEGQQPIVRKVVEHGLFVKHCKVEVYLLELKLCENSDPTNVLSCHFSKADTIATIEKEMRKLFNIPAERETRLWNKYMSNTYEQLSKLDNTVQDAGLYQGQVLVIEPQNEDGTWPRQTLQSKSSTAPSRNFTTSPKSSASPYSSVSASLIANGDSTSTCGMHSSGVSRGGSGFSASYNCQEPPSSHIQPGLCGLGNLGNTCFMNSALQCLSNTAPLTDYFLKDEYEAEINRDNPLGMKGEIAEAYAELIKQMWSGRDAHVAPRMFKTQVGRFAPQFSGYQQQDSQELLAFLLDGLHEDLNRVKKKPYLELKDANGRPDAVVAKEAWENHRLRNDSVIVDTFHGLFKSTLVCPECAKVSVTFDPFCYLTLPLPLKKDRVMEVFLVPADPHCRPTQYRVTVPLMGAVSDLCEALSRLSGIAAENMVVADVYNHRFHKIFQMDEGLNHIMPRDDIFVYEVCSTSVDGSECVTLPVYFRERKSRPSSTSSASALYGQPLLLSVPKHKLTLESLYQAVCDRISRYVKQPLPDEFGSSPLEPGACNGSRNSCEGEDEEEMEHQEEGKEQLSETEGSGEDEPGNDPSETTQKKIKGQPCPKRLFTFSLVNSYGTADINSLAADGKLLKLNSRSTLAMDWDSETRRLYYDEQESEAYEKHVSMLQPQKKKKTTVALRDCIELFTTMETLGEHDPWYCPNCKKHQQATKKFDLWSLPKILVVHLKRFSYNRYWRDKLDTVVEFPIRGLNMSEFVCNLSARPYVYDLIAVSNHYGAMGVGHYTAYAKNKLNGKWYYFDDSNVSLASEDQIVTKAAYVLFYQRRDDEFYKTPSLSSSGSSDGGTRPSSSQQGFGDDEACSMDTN
Assay: Inhibition of recombinant human 6His-tagged USP4 using diubiquitin as a substrate at 0 to 10 uM preincubated for 15 mins followed by substrate addition and measured after 2 hrs by SDS-PAGE analysis
Details: dose 0-10 µM, time 135.0 min

`COc1ncnc(C2CC2)c1-c1ncc2ccc(=O)n(Cc3ccc(-c4nc(C(F)(F)F)cn4C(C)C)cc3)c2n1` was tested, and the inhibition was “inactive”.
